Tests used:
Type in all cases: cell-based
[1] = system: human mammary cancer-derived KPL-4 cells; test: Cell growth inhibition test with KPL-4 cells (WST-1); conditions: KPL4, 72 hours, read-out: 50% growth inhibition concentration (GI50)
In short: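 Growth inhibition from WST-1 absorbance difference (450 minus 655 nm) after 1 h, relative to untreated control as 100%, giving GI50. KPL-4 cells had 24 h pre-culture in DMEM/10% FCS before 72 h compound exposure at 37 °C under 5% CO2.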

[2] = system: human multiple myeloma-derived KMS-11 cells; test: Cell growth inhibition test with KMS-11 cells (WST-1); conditions: 72 hours, read-out: 50% growth inhibition concentration (GI50)
Protocol: In a 96-well plate (Nunc), human multiple myeloma-derived KMS-11 cells were sown in an amount of 4000 cells/well, and pre-incubated in 10% FCS-containing RPMI 1640 (Nissui) (incubation medium) in a 5% carbon dioxide incubator at 37° C. for 24 hours. Next, a DMSO solution of a test compound controlled at 10 mmol/L was stepwise diluted with the incubation medium, and added to each well in a total amount of 100 μL/well, and further incubated in the 5% carbon dioxide incubator at 37° C. for 72 hours. After the incubation, WST-1-labeled mixture (Rosh Diagnostic) diluted 2-fold with the incubation medium was added thereto in an amount of 20 μL/well, and incubated in the 5% carbon dioxide incubator at 37° C. for 2 hours. Using a microplate spectrophotometer (Biorad's Model 550), the absorbance at 450 nm and 655 nm of each well was measured. The cell growth inhibition activity of the test compound was indicated by the 50% growth inhibition concentration (GI50) thereof, like in Test Example 2.

[3] = system: human chronic myelocytic leukemia-derived K562 cells; test: Cell growth inhibition test with K562 cells (WST-1); conditions: 72 hours, read-out: 50% growth inhibition concentration (GI50)
In short: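 K562 cells at 1500 cells/well in 10% FCS RPMI 1640, pre-incubated 5 h, then exposed to serially diluted compound for 72 h at 37° C, 5% CO2. Viability read by WST-1 after 2 h (absorbance 450/655 nm); GI50 reported.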

Structure (SMILES)	GI50 [1]	GI50 [2]	GI50 [3]
CCc1c(O)cc(O)c(-c2ccccc2)c1CC(=O)OC [Compound 52, Methyl 2-ethyl-3,5-dihydroxy-6-phenylphenylacetate]	≤ 50 µM	≤ 50 µM	–
CCc1c(O)cc(O)c(-c2ccccc2)c1CCO [Compound 84, 6-Ethyl-5-(2-hydroxyethyl)-4-phenylbenzene-1,3-diol]	≤ 50 µM	≤ 50 µM	≤ 50 µM
COCCc1c(C(C)=O)c(O)cc(O)c1-c1ccccc1 [Compound 92, 1-[2,4-Dihydroxy-6-(2-methoxyethyl)-5-phenylphenyl]ethanone]	≤ 50 µM	≤ 50 µM	≤ 50 µM
COCCc1c(C(C)=O)c(O)cc(O)c1-c1cccc(OC)c1 [Compound 116, 1-[2,4-Dihydroxy-6-(2-methoxyethyl)-5-(3-methoxyphenyl)phenyl]ethanone]	≤ 50 µM	≤ 50 µM	≤ 50 µM
CCc1c(O)cc(O)c(-c2cccc(OC)c2)c1CCOC [Compound 118, 6-Ethyl-5-(2-methoxyethyl)-4-(3-methoxyphenyl)benzene-1,3-diol]	≤ 50 µM	≤ 50 µM	≤ 50 µM
COCCc1c(C(C)=O)c(O)cc(O)c1-c1cccc(C)c1 [Compound 122, 1-[2,4-Dihydroxy-6-(2-methoxyethyl)-5-(3-methylphenyl)phenyl]ethanone]	≤ 50 µM	≤ 50 µM	≤ 50 µM
COCCc1c(C(C)=O)c(O)cc(O)c1-c1cccc(O)c1 [Compound 134, 1-[2,4-Dihydroxy-5-(3-hydroxyphenyl)-6-(2-methoxyethyl)phenyl]ethanone]	≤ 50 µM	≤ 50 µM	≤ 50 µM
COCCOCCc1c(C(C)=O)c(O)cc(O)c1-c1ccccc1 [Compound 136, 1-[2,4-Dihydroxy-6-[2-(2-methoxyethoxy)ethyl]-5-phenylphenyl)ethanone]	≤ 50 µM	–	≤ 50 µM
COCCOCCc1c(C(C)=O)c(O)cc(O)c1-c1cccc(OC)c1 [Compound 137, 1-{2,4-dihydroxy-6-[2-(2-methoxyethoxy)ethyl]-5-(3-methoxyphenyl)phenyl}ethanone]	≤ 50 µM	–	≤ 50 µM
CCc1c(O)cc(O)c(-c2cccc(OC)c2)c1CCOCCOC [Compound 138, 6-Ethyl-5-[2-(2-methoxyethoxy)ethyl]-4-(3-methoxyphenyl)benzene-1,3-diol]	≤ 50 µM	≤ 50 µM	≤ 50 µM
COCCOCCc1c(C(C)=O)c(O)cc(O)c1-c1cccc(C)c1 [Compound 139, 1-{2,4-dihydroxy-6-[2-(2-methoxyethoxy)ethyl]-5-(3-methylphenyl)phenyl}ethanone]	≤ 50 µM	≤ 50 µM	≤ 50 µM
CCc1c(O)cc(O)c(-c2cccc(OC)c2)c1CCO [Compound 143, 6-Ethyl-5-(2-hydroxyethyl)-4-(3-methoxyphenyl)benzene-1,3-diol]	≤ 50 µM	–	≤ 50 µM
C=CCOCCCc1c(CC)c(O)cc(O)c1-c1ccccc1 [Compound 145, 5-(3-Allyloxypropyl)-6-ethyl-4-phenylbenzene-1,3-diol]	≤ 50 µM	–	≤ 50 µM
CCc1c(O)cc(O)c(-c2ccccc2)c1CCCOCCOC [Compound 146, 6-Ethyl-5-[3-(2-methoxyethoxy)propyl]-4-phenylbenzene-1,3-diol]	≤ 50 µM	–	≤ 50 µM
CCc1c(O)cc(O)c(-c2ccccc2)c1CCOCC(O)CO (stereo not drawn) [Compound 147, 5-[2-(2,3-Dihydroxypropoxy)ethyl]-6-ethyl-4-phenylbenzene-1,3-diol]	≤ 50 µM	≤ 50 µM	≤ 50 µM
CCc1c(O)cc(O)c(-c2ccccc2)c1CCCOCC(O)CO (stereo not drawn) [Compound 148, 5-[3-(2,3-Dihydroxypropoxy)propyl]-6-ethyl-4-phenylbenzene-1,3-diol]	≤ 50 µM	–	≤ 50 µM
CCc1c(O)cc(O)c(-c2cccc(C)c2)c1CCOCCOC [Compound 149, 6-Ethyl-5-[2-(2-methoxyethoxy)ethyl]-4-(3-methylphenyl)benzene-1,3-diol]	≤ 50 µM	–	≤ 50 µM
CCc1c(O)cc(O)c(-c2ccccc2)c1CCOCC(=O)NC [Compound 156, 2-[2-(2-Ethyl-3,5-dihydroxy-6-phenylphenyl)ethoxy]-N-methylacetamide]	≤ 50 µM	–	≤ 50 µM
CCc1c(O)cc(O)c(-c2ccccc2)c1CCCOCC(=O)NC [Compound 159, 2-[3-(2-Ethyl-3,5-dihydroxy-6-phenylphenyl)propoxy]-N-methylacetamide]	≤ 50 µM	≤ 50 µM	≤ 50 µM

Structure (SMILES)	GI50 [1]	GI50 [2]	GI50 [3]
CCc1c(O)cc(O)c(-c2ccccc2)c1CCOCCO [Compound 161, 6-Ethyl-5-[2-(2-hydroxyethoxy)ethyl]-4-phenylbenzene-1,3-diol]	≤ 50 µM	–	≤ 50 µM
CCc1c(O)cc(O)c(-c2ccccc2)c1CCCOCCO [Compound 162, 6-Ethyl-5-[3-(2-hydroxyethoxy)propyl]-4-phenylbenzene-1,3-diol]	≤ 50 µM	–	≤ 50 µM
CCc1c(O)cc(O)c(-c2ccccc2)c1CCCOC(CO)CO [Compound 163, 5-{3-[Bis(hydroxymethyl)methoxy]propyl}-6-ethyl-4-phenylbenzene-1,3-diol]	≤ 50 µM	–	≤ 50 µM
COCCOCCc1c(C(C)=O)c(O)cc(O)c1-c1cccc(O)c1 [Compound 165, 1-{2,4-Dihydroxy-5-(3-hydroxyphenyl)-6-[2-(2-methoxyethoxy)ethyl]phenyl}ethanone]	≤ 50 µM	–	≤ 50 µM
CCc1c(O)cc(O)c(-c2ccccc2)c1CCCOCC(=O)NCCO [Compound 167, 2-[3-(2-Ethyl-3,5-dihydroxy-6-phenylphenyl)propoxy]-N-(2-hydroxyethyl)acetamide]	≤ 50 µM	–	≤ 50 µM
CCc1c(O)cc(O)c(-c2cccc(O)c2)c1CCOC [Compound 171, 6-Ethyl-4-(3-hydroxyphenyl)-5-(2-methoxyethyl)benzene-1,3-diol]	≤ 50 µM	–	≤ 50 µM
CCc1c(O)cc(O)c(-c2cccc(O)c2)c1CCO [Compound 172, 6-Ethyl-5-(2-hydroxyethyl)-4-(3-hydroxyphenyl)benzene-1,3-diol]	≤ 50 µM	–	≤ 50 µM
CCc1c(O)cc(O)c(-c2cccc(O)c2)c1CCOCC(O)CO (stereo not drawn) [Compound 173, 5-[2-(2,3-dihydroxypropoxy)ethyl]-6-ethyl-4-(3-hydroxyphenyl)benzene-1,3-diol]	≤ 50 µM	–	≤ 50 µM
CCc1c(O)cc(O)c(-c2ccccc2)c1CCOCCCO [Compound 175, 6-Ethyl-5-[2-(3-hydroxypropoxy)ethyl]-4-phenylbenzene-1,3-diol]	≤ 50 µM	–	≤ 50 µM
CCc1c(O)cc(O)c(-c2cccc(OC)c2)c1CCOCC(O)CO (stereo not drawn) [Compound 189, 5-[2-(2,3-Dihydroxypropoxy)ethyl]-6-ethyl-4-(3-methoxyphenyl)benzene-1,3-diol]	≤ 50 µM	–	≤ 50 µM
CCc1c(O)cc(O)c(-c2ccccc2)c1CCc1ocnc1CO [Compound 210, 6-Ethyl-5-[2-(4-hydroxymethyl-1,3-oxazol-5-yl)ethyl]-4-phenylbenzene-1,3-diol]	–	≤ 50 µM	≤ 50 µM
CCc1c(O)cc(O)c(-c2cccc(C)c2)c1CC1O[C@@H](CO)[C@H](CO)O1 [Compound 229, 5-{[(4S,5S)-4,5-bis(hydroxymethyl)-1,3-dioxolan-2-yl]methyl}-6-ethyl-4-(3-methylphenyl)benzene-1,3-diol]	–	≤ 50 µM	≤ 50 µM
CCc1c(O)cc(O)c(-c2ccco2)c1CCOCCO [Compound 256, 6-Ethyl-4-(furan-2-yl)-5-[2-(2-hydroxyethoxy)ethyl]benzene-1,3-diol]	–	≤ 50 µM	≤ 50 µM
COC(=O)Cc1cc(O)cc(O)c1-c1ccc2ccccc2c1 [Compound 270, Methyl-3,5-dihydroxy-2-(2-naphthyl)phenylacetate]	≤ 50 µM	–	≤ 50 µM
CCc1c(O)cc(O)c(-c2cccs2)c1CCOCCO [Compound 275, 6-Ethyl-5-[2-(2-hydroxyethoxy)ethyl]-4-(2-thienyl)benzene-1,3-diol]	–	≤ 50 µM	≤ 50 µM
CCc1cc(-c2n[nH]c3cc(OC)ccc23)c(O)cc1O [Compound 276, 6-Ethyl-4-(6-methoxy-1H-indazol-3-yl)benzene-1,3-diol]	≤ 50 µM	≤ 50 µM	–
CCc1c(O)cc(O)c(-c2ccc(F)c(C)c2)c1CC1O[C@@H](CO)[C@H](CO)O1 [Compound 300, 5-{[(4S,5S)-4,5-Bis(hydroxymethyl)-1,3-dioxolan-2-yl]methyl}-6-ethyl-4-(4-fluoro-3-methylphenyl)benzene-1,3-diol]	–	≤ 50 µM	≤ 50 µM
CCc1c(O)cc(O)c(-c2ccccc2)c1Cc1nn(CCOC)c(=O)o1 [Compound 317, 5-[(2-Ethyl-3,5-dihydroxy-6-phenylphenyl)methyl]-3-(2-methoxyethyl)-3H-1,3,4-oxadiazol-2-one]	–	≤ 50 µM	≤ 50 µM
